From ChEMBL document CHEMBL3507680, “University of Dundee, Gates Library screen for HepG2 cell viability”

Experiment: Human HepG2 cell viability assay in 384 well format
Assay type: toxicity, cell-based
Set-up: dose 125 nL, time 70.5 hour; cytotoxicity at 70.5 h: concentration not given beside the values
Settings: HepG2 cells, read-out: Inhibition

SMILES | cytotoxicity at 70.5 h [%]
O=C(NCC1CCCO1)c1cc(Sc2ncccn2)ccn1 (stereo unspecified) | 24.8
CS(=O)(=O)N1CC[C@H]2O[C@@H](C(=O)NCc3ccco3)CC[C@H]21 | -12
COCCCNC(=O)c1cc(C(C)C)nc(N2CCCCCC2)n1 | -8.22
O=C1NCc2ccccc2CC12CCN(Cc1ccncc1Cl)C2 (stereo unspecified) | -3.37
CCn1nc(C)c2nc(C)nc(NCCc3ccccc3)c21 | 2.39
CC(=O)N1CCCC1c1nc(C)cc(-c2ccc(F)cc2)n1 (stereo unspecified) | -1.51
CC1CN(C)CCN1C(=O)c1cccn1Cc1cccnc1 (stereo unspecified) | -7.82
O=C(O)c1cccc(N2C[C@H](NC(=O)C3CCOCC3)[C@@H](C3CC3)C2)n1 | -4.78
c1cc(-c2c[nH]c([C@@H]3COCCN3Cc3csnn3)n2)ccn1 | 12.8
CCN(C)c1ncnc2c1CCN(c1ccc(C)nn1)CC2 | -2.59
Cc1cc(-c2cnc(C)nc2CN(C)C(=O)c2cc(C3CC3)on2)on1 | -3.21
CCc1ccsc1C(=O)N1CCCC(c2noc(C)n2)C1 (stereo unspecified) | -2.57
Cc1cc(NC(=O)CCN2CCn3c(nnc3C3CC3)C2)no1 | -11.7
O=C(NCCc1ccncc1)[C@H]1CC[C@@H]2[C@@H](CCN2C2CCC2)O1 | -7.73
Cn1nnnc1SCC1COc2ccccc2O1 (stereo unspecified) | 0.146
O=C(N[C@@H]1CCN(Cc2cc3ccccc3s2)C[C@H]1O)c1cccnc1 | -3.4
COc1ccc(-c2nc(C)cc(SCC(N)=O)n2)cc1 | -2.23
CC(C(=O)N1CCCCCC1)N1CCN(Cc2nccn2C)CC1 (stereo unspecified) | -4.84
CCc1nccn1C1CCCN(C(=O)c2cnc3onc(C)c3c2)C1 (stereo unspecified) | -2.35
O=S(=O)(NCCN1CC=CC1)c1cncc(Cl)c1 | -0.531
CCCc1n[nH]c(C2CN(CCCS(=O)(=O)N(C)C)CCO2)n1 (stereo unspecified) | -4.5
Cc1ccc2[nH]c(C(=O)NCCCn3ccnn3)c(C)c2c1 | 22.6
COc1ccc(OCCN2CCC(c3ccnn3CCO)CC2)cc1 | -5.41

SMILES | cytotoxicity at 70.5 h [%]
Cc1ccc(CN2CC[C@H]3OCC[C@@]3(COCC(=O)N(C)C)C2)s1 | 15.2
CC(C)N1CCCC2(CCN(C(=O)CCCn3cccn3)C2)C1=O (stereo unspecified) | 6.53
COc1c(C2CCCN2Cc2cccc(C(N)=O)c2)c(C)nn1C (stereo unspecified) | -2.05
Cc1nn(C)c(C)c1CN1CCCC(c2ccc(C(=O)O)cc2)C1 (stereo unspecified) | -3.35
Cc1c[nH]c(C(=O)N2C[C@H]3CC[C@@H]2CN(Cc2cscn2)C3)n1 | -15.6
CCc1nc(CCNC(=O)Nc2ccc(C(=O)NC)cc2)cs1 | -1.4
N#Cc1cccc(C(=O)N2CCc3ncc(Cn4cccn4)n3CC2)c1 | 8.26
Cc1nc(CN2CCC(N(C)Cc3noc(C(C)C)n3)C2)oc1C (stereo unspecified) | 10.7
CNS(=O)(=O)CC1CCCN1c1ccc(Cl)cn1 (stereo unspecified) | -1.45
COc1ccc(C2CCCN2C(=O)c2ccnc(NC3CC3)c2)cc1 (stereo unspecified) | 6.42
CC(=O)N1CCCN(C(=O)Cc2ccc3c(c2)OCO3)CC1 | -14.3
Cc1csc(CN2CC[C@H]3C[C@H](c4nnc(C)[nH]4)O[C@@H]3C2)n1 | 20.1
CC(NC(=O)NCCCOc1ccccc1F)c1nncn1C (stereo unspecified) | -7.39
N#Cc1ccc(CN2C(=O)c3ccccc3CS2(=O)=O)cc1 | -1.6
CCS(=O)(=O)N1Cc2nnn(C)c2C(COCCN(C)C)C1 (stereo unspecified) | -0.313
COc1cc(C)nc(N2CCN(C(=O)COC3CCCC3)CC2)n1 | -4.07
CCN1CCN(Cc2nc(CC(C)C)no2)CC1 | 19.9
COCCN(CCOC)C(=O)c1cnn(C)c1-n1c(C)ccc1C | 1.05
Cc1nn(C)cc1-c1ccnc(N2CCN(c3ccccc3)C(=O)C2)n1 | -3.19
CCCc1noc(CCC(=O)N2CCN(C)CC2c2ccccc2)n1 (stereo unspecified) | -15
Cc1sc2nc(C(F)(F)F)nc(N3CCN(C)CC3)c2c1C | -4.17
Cc1cc(C)c(CNC(=O)N2CCC(N3CCNC3=O)CC2)c(=O)[nH]1 | -10.5
O=C(CCc1nnc(-c2ccccc2)o1)N1CCN(CC2CC2)CC1 | 1.86

SMILES | cytotoxicity at 70.5 h [%]
Cc1noc(C2CCCN(C(=O)c3cc(-c4ccccc4)on3)C2)n1 (stereo unspecified) | -20.7
Cn1ccc(-c2cc(C(=O)N3CCC(O)CC3)c3ccccn23)n1 | 29.8
Cn1cc(C2(C)CN(Cc3ccc(Cl)c(F)c3)CCO2)cn1 (stereo unspecified) | -7.47
CCN(Cc1nnsc1Cl)C(C)c1ccc(C#N)cc1 (stereo unspecified) | -3.23
Cc1nnc(SCCNc2cc(C3CC3)ncn2)s1 | -5.85
Cc1nn(C(C)C)c(C)c1NC(=O)c1cccnc1 | 1.88
Cc1cc(C)n(CCCN(CCN2CCOCC2)Cc2ccco2)n1 | -4.4
CCc1ocnc1C(=O)N1CCN(c2nncc3ccccc23)CC1 | -19.4
Cc1n[nH]c(C)c1NC(=O)CN1CCc2c(nc(C(C)C)n2C)C1 | -16.4
Cc1cccc(N2CCCC3(C2)CN(S(=O)(=O)C2CC2)CCO3)c1 (stereo unspecified) | -3.02
Cc1cnn(CC2CCCN2CCCc2nc3ccccc3o2)c1 (stereo unspecified) | -16.1
N#Cc1ccccc1C(=O)N1C[C@H](CO)C[C@H](CN2CCCC2)C1 | -8.82
CN(C1CCN(C(=O)NCCc2ccc(F)cc2F)CC1)S(C)(=O)=O | -5.3
CS(=O)(=O)CCSc1nnc(Cc2ccccc2F)o1 | -1.57
c1ccc(Cc2noc(CN3CCCCC3C3OCCO3)n2)cc1 (stereo unspecified) | -2.71
COc1ccc(CNC(=O)CCc2nnc3ccccn3c2=O)cc1 | 20.7
Cn1cc(C2SCC(=O)Nc3c2c(=O)[nH]n3C2CCOCC2)cn1 (stereo unspecified) | 17.2
OC(CNc1cncc(OCc2ccccc2)n1)c1ccco1 (stereo unspecified) | -5.66
CC(C)=Cc1c(-c2ccccc2)ncn1CCN(C)S(C)(=O)=O | 0.261
CCc1nnc(CNC(=O)c2cc3c(nc2OC)CCC3)s1 | 2.77
COc1ccc2c(c1)CCCN2C(=O)NC1CCCCNC1=O (stereo unspecified) | 23.6
CCn1nnc2cc(C(=O)N3CCCC3Cn3cc(C)cn3)ccc21 (stereo unspecified) | -19.4
COCc1ccc(C(=O)N2CCCN(C(=O)OCC(C)C)CC2)cc1 | 19

SMILES | cytotoxicity at 70.5 h [%]
O=S(=O)(C1CC1)N1CCO[C@@H]2CN(Cc3ccco3)C[C@@H]2C1 | -2.12
CN(Cc1nncn1C)C(=O)c1cc(COc2ccccc2)[nH]n1 | -5.51
COCCOCC(=O)Nc1ccc(C)cc1Br | -3.99
Cc1cc(C(=O)N2CCCC2c2noc(C)n2)[nH]n1 (stereo unspecified) | 1.6
CN(Cc1cccs1)C(=O)CNC1CCc2ncnn2C1 (stereo unspecified) | -5.9
CC(C)N(CCCNC(=O)C1CC(=O)N(C)C1)S(C)(=O)=O (stereo unspecified) | 33.7
CC(C)NC(=O)[C@H]1C[C@@H]2CN(C(=O)NCCc3ccccc3)C[C@H]1O2 | 8.95
Cc1ccc(CN2CCn3c(CNS(C)(=O)=O)nnc3C2)s1 | 22.6
Cc1csc(CN2CCC[C@]3(C[C@H](Oc4ccccn4)CO3)C2)n1 | 16
CCOC(CC)C(=O)NCc1cccc(N2CCCCC2=O)c1 (stereo unspecified) | -6.54
CCCn1c(C)c(CC(=O)NCC(N)=O)c2c1CC(C)(C)CC2=O | 0.554
O=C(c1ccnnc1)N1CCC2(CC1)CN(c1ccccn1)CCO2 | -10.9
N#Cc1cccc(OCCN2CCOC(Cn3cccn3)C2)c1 (stereo unspecified) | -3.46
CC(O)CN1CCN(C(=O)c2cc3ccccc3c(=O)[nH]2)CC1 (stereo unspecified) | -1.26
O=C1CC[C@@H]2[C@@H](CCN2Cc2ccccn2)N1CC1CC1 | -3.44
Cc1cc(NCc2ccc(O)cc2)n2nc(C)cc2n1 | -2.08
Cn1cc(NC(=O)CCCc2cccs2)c(=O)n(C)c1=O | 5.9
COCc1nnc(NC(=O)c2cn(C(C)C)c3ccc(OC)cc23)s1 | -10.1
CCN(C(=O)c1cc2c([nH]c1=O)CCCC2=O)C1CCCCC1 | -5.73
COc1ccc2c(OCC(=O)NCC(F)(F)F)ccnc2c1 | -15.8
Cc1csc(CN(C)S(=O)(=O)c2ccc(C)c(N(C)C)c2)n1 | -11.1
CCC(CC)CN1CCC2(CCC(=O)N2OCc2ccccc2F)CC1 | 21.6
CS(=O)(=O)Nc1ccn(Cc2cccc(Cl)c2)n1 | -4.43

SMILES | cytotoxicity at 70.5 h [%]
CC(C)CCN1C[C@H]2C[C@H](C(=O)Nc3cccnc3)[C@@H](C1)O2 | -6.02
CCCOC1CCCN(c2ncnc3c2CCN(C(=O)C2CC2)C3)C1 (stereo unspecified) | -7.75
COc1cc2[nH]c(=O)c(CN3CCCC(CO)C3)cc2c(OC)c1OC (stereo unspecified) | -13.1
CN1CCC(NC(=O)[C@H]2CC[C@@H]3[C@@H](CCN3c3ncccn3)O2)CC1 | -6.76
Cc1noc([C@@H]2C[C@H]3OCC[C@H]3N(Cc3ccoc3)C2)n1 | -6.19
COc1ccccc1C(=O)N1CCC(O)(c2cccc(C)c2C)CC1 | 11.7
COc1ccc2c(c1)C(NCCc1ccccn1)CCCO2 (stereo unspecified) | 16.8
COCCN1CC(c2cc(O)nc(NC(C)C)n2)CC1=O (stereo unspecified) | -6.05
CS(=O)(=O)N1CCN(c2ccnc(N3CCCC3)n2)CC1 | -4.19
O=C(c1ccoc1)N1CCC(NCc2ccccc2Cl)CC1 | -8.33
Cn1c(CN2CCCC2)nnc1C1CCCN(C(=O)CN2CCCC2)C1 (stereo unspecified) | 2.51
c1csc(C2(NCc3csc(C4CC4)n3)CCCC2)n1 | -7.26
NC(=O)C1Cn2ccnc2C2(CCN(C(=O)NC3CCCC3)CC2)O1 (stereo unspecified) | -8.91
Cc1cc(C)c(C(=O)NC2CCCc3nc(N(C)C)ncc32)cc1C (stereo unspecified) | 23.6
CCc1ccc(NC(=O)c2cnc(N3CCCC3)nc2C)cc1 | -2.19
O=C(NCCC(=O)N1CCCCCC1)c1c(O)cc(F)cc1F | 9.05
CCc1cnc(N2C[C@H]3C[C@H](C(=O)NC4CCC4)[C@@H](C2)O3)nc1 | -1.31
Cc1cccc(-c2noc(Cn3nc(C(N)=O)ccc3=O)n2)c1 | -4.08
COc1ccc(C)cc1CN(Cc1nc(C)c(C)o1)C1CCN(C)C1 (stereo unspecified) | 3.17
